Assay results published in US10421779B2, “Carbazole compound having anti-virus activity” (priority 2016, dated 2019).
Read-outs that look alike come from different tables or passages of the source.

Tested on: HCV genotype 1 b (HCV replicon system)
Assay: HCV replicon system genotype 1b, Renilla luciferase activity
Type: cell-based
Settings: Hepatitis C virus, 72 h, HCV genotype 1b replicon, Rluc, 3 days, read-out: Replicon EC50 1b type
Procedure: From human liver cells (Huh7.5.1 cell) infected by hepatitis C virus, the anti-virus effects by the compound of the present invention were measured. From HCV genotype 1 b (HCV replicon system), genotype 2a (HCV cell culture system, HCVcc), and genotype 3a, the EC50 values were measured.
In order to measure the EC50 value from HCV genotype 1 b, the degrees of HCV replication inhibitory activities of an experimental compound were measured. The EC50 value was measured by treating the experimental compound with the HCV replicon systems (genotype 1 b) having Renilla luciferase (Rluc) genes and genotype 1 b non-structure genes under various concentration conditions to compare the activity degree of the luciferase after 3 days elapsed time with that of the control.

Compound | EC50 | EC50 (range limits given with own units (pM to nM))
COC(=O)N[C@@H](C(=O)N1CCC[C@H]1C(=O)Nc1ccc2c3ccc(NC(=O)[C@@H]4CCCN4C(=O)[C@H](NC(=O)OC)c4ccccc4)cc3n(CCN3CCN(C)CC3)c2c1)c1ccccc1 [Example 11] | 10000 to 100000 pM | 
COC(=O)N[C@H](C(=O)N1CCC[C@H]1C(=O)Nc1ccc2c3ccc(NC(=O)[C@@H]4CCCN4C(=O)[C@@H](NC(=O)OC)C(C)C)cc3n(C)c2c1)C(C)C [Example 9, dimethyl ((2S,2′S)-((2S,2′S)-(((9-methyl-9H-carbazole-2,7-diyl)bis(azanediyl))bis(carbonyl))bis(pyrrolidine-2,1-diyl))bis(3-methyl-1-oxobutane-1,2-diyl))dicarbamate] | > 100000 pM | 
COC(=O)N[C@@H](C(=O)N1CCC[C@H]1C(=O)Nc1ccc2c3ccc(NC(=O)[C@@H]4CCCN4C(=O)[C@H](NC(=O)OC)c4ccccc4)cc3n(C)c2c1)c1ccccc1 [Example 6, dimethyl ((1R,1′R)-((2S,2′S)-(((9-methyl-9H-carbazole-2,7-diyl)bis(azanediyl))bis(carbonyl))bis(pyrrolidine-2,1-diyl))bis(2-oxo-1-phenylethane-2,1-diyl))dicarbamate] | 19.5 pM | 
CC(C)[C@@H](C(=O)N1CCC[C@H]1C(=O)Nc1ccc2c3ccc(NC(=O)[C@@H]4CCCN4C(=O)[C@H](C(C)C)N4CCOC4=O)cc3n(C)c2c1)N1CCOC1=O [Example 10, (2S,2′S)—N,N′-(9-methyl-9H-carbazole-2,7-diyl)bis(1-((S)-3-methyl-2-(2-oxazolidine-3-yl)butanoyl)pyrrolidine-2-carboxamide)] | > 100000 pM | 
CCCCCCOc1ccccc1Cn1c2cc(NC(=O)[C@@H]3CCCN3C(=O)[C@H](NC(=O)OC)c3ccccc3)ccc2c2ccc(NC(=O)[C@@H]3CCCN3C(=O)[C@H](NC(=O)OC)c3ccccc3)cc21 [Example 35, dimethyl ((1R,1′R)-((2S,2′S)-(((9-(2-(hexyloxy)benzyl)-9H-carbazole-2,7-diyl)bis(azanediyl))bis(carbonyl))bis(pyrrolidine-2,1-diyl))bis(2-oxo-1-phenylethane-2,1-diyl))dicarbamate] | ~1000 pM | 
COC(=O)N[C@@H](C(=O)N1CCC[C@H]1C(=O)Nc1ccc2c3ccc(NC(=O)[C@@H]4CCCN4C(=O)[C@H](NC(=O)OC)c4ccccc4)cc3n(Cc3cccnc3)c2c1)c1ccccc1 [Example 18, dimethyl ((1R,1′R)-((2S,2′S)-(((9-(pyridine-3-ylmethyl)-9H-carbazole-2,7-diyl)bis(azanediyl))bis(carbonyl))bis(pyrrolidine-2,1-diyl))bis(2-oxo-1-phenylethane-2,1-diyl))dicarbamate] | 50 to 250 pM | 
COC(=O)N[C@@H](C(=O)N1CCC[C@H]1C(=O)Nc1ccc2c3ccc(NC(=O)[C@@H]4CCCN4C(=O)[C@H](NC(=O)OC)c4ccccc4)cc3n(Cc3ccccn3)c2c1)c1ccccc1 [Example 17, dimethyl ((1R,1′R)-((2S,2′S)-(((9-(pyridine-2-ylmethyl)-9H-carbazole-2,7-diyl)bis(azanediyl))bis(carbonyl))bis(pyrrolidine-2,1-diyl))bis(2-oxo-1-phenylethane-2,1-diyl))dicarbamate] | 50 to 250 pM | 
COCCOCCn1c2cc(NC(=O)[C@@H]3CCCN3C(=O)[C@H](NC(=O)OC)c3ccccc3)ccc2c2ccc(NC(=O)[C@@H]3CCCN3C(=O)[C@H](NC(=O)OC)c3ccccc3)cc21 [Example 22, dimethyl ((1R,1′R)-((2S,2′S)-(((9-(2-(2-methoxyethoxy)ethyl)-9H-carbazole-2,7-diyl)bis(azanediyl))bis(carbonyl))bis(pyrrolidine-2,1-diyl))bis(2-oxo-1-phenylethane-2,1-diyl))dicarbamate] |  | 250 to 1250 pM
COC(=O)N[C@@H](C(=O)N1CCC[C@H]1C(=O)Nc1ccc2c3ccc(NC(=O)[C@@H]4CCCN4C(=O)[C@H](NC(=O)OC)c4ccccc4)cc3n(CC3CCCC3)c2c1)c1ccccc1 [Example 47, dimethyl ((1R,1′R)-((2S,2′S)-(((9-(cyclopentylmethyl)-9H-carbazole-2,7-diyl)bis(azanediyl))bis(carbonyl))bis(pyrrolidine-2,1-diyl))bis(2-oxo-1-phenylethane-2,1-diyl))dicarbamate] | ~10 pM | 
CCCCn1c2cc(NC(=O)C3CCCN3C(=O)[C@@H](NC(=O)OC)c3ccccc3)ccc2c2ccc(NC(=O)[C@@H]3CCCN3C(=O)[C@@H](NC(=O)OC)c3ccccc3)cc21 (stereo partly drawn) [Example 3, dimethyl ((1S,1′S)-((2S,2′S)-(((9-butyl-9H-carbazole-2,7-diyl)bis(azanediyl))bis(carbonyl))bis(pyrrolidine-2,1-diyl))bis(2-oxo-1-phenylethane-2,1-diyl))carbamate] | > 1000 pM | 
CCCCn1c2cc(NC(=O)C3CCCN3C(=O)[C@H](C(C)C)N3CCOC3=O)ccc2c2ccc(NC(=O)[C@@H]3CCCN3C(=O)[C@H](C(C)C)N3CCOC3=O)cc21 (stereo partly drawn) [Example 5, (2S,2′S)—N,N′-(9-butyl-9H-carbazole-2,7-diyl)bis(1-((S)-3-methyl-3-2-(2-oxooxazolidine-3-yl)butanoyl)pyrrolidine-2-carboxamide)] | > 100000 pM | 
COC(=O)N[C@H](C(=O)N1CCC[C@H]1C(=O)Nc1ccc2c3ccc(NC(=O)[C@@H]4CCCN4C(=O)[C@@H](NC(=O)OC)c4ccccc4)cc3n(C)c2c1)c1ccccc1 [Example 8, dimethyl ((1S,1′S)-((2S,2′S)-(((9-methyl-9H-carbazole-2,7-diyl)bis(azanediyl))bis(carbonyl))bis(pyrrolidine-2,1-diyl))bis(2-oxo-1-phenylethane-2,1-diyl))dicarbamate] | > 1000 pM | 
CCCCn1c2cc(NC(=O)[C@@H]3CCCN3C(=O)[C@H](NC(=O)OC)C(C)C)ccc2c2ccc(NC(=O)[C@@H]3CCCN3C(=O)[C@H](NC(=O)OC)C(C)C)cc21 [Example 2, dimethyl ((2R,2′R)-((2S,2′S)-(((9-butyl-9H-carbazole-2,7-diyl)bis(azanediyl))bis(carbonyl))bis(pyrrolidine-2,1-diyl))bis(3-methyl-1-oxobutane-1,2-diyl))dicarbamate] | > 1000 pM | 
CCCCn1c2cc(NC(=O)[C@@H]3CCCN3C(=O)[C@H](NC(=O)OC)c3ccccc3)ccc2c2ccc(NC(=O)[C@@H]3CCCN3C(=O)[C@H](NC(=O)OC)c3ccccc3)cc21 [Example 1, dimethyl ((1R,1′R)-((2S,2′S)-(((9-butyl-9H-carbazole-2,7-diyl)bis(azanediyl))bis(carbonyl))bis(pyrrolidine-2,1-diyl))bis(2-oxo-1-phenylethane-2,1-diyl))dicarbamate] | 10.4 pM | 
COC(=O)N[C@@H](C(=O)N1CCC[C@H]1C(=O)Nc1ccc2c3ccc(NC(=O)[C@@H]4CCCN4C(=O)[C@H](NC(=O)OC)c4ccccc4)cc3n(CCN3CCOCC3)c2c1)c1ccccc1 [Example 12, dimethyl ((1R,1′R)-((2S,2′S)-(((9-(2-morpholinoethyl)-9H-carbazole-2,7-diyl)bis(azanediyl))bis(carbonyl))bis(pyrrolidine-2,1-diyl))bis(2-oxo-1-phenylethane-2,1-diyl))carbamate] | 1000 to 10000 pM | 
CCCCCCCCCCn1c2cc(NC(=O)[C@@H]3CCCN3C(=O)[C@H](NC(=O)OC)C(C)C)ccc2c2ccc(NC(=O)[C@@H]3CCCN3C(=O)[C@H](NC(=O)OC)C(C)C)cc21 [Example 25, dimethyl ((2R,2′R)-((2S,2′S)-(((9-decyl-9H-carbazole-2,7-diyl)bis(azanediyl))bis(carbonyl))bis(pyrrolidine-2,1-diyl))bis(3-methyl-1-oxobutane-1,2-diyl))dicarbamate] | > 1000 pM | 
CCCCC(CCCC)n1c2cc(NC(=O)[C@@H]3CCCN3C(=O)[C@H](NC(=O)OC)c3ccccc3)ccc2c2ccc(NC(=O)[C@@H]3CCCN3C(=O)[C@H](NC(=O)OC)c3ccccc3)cc21 [Example 46, dimethyl ((1R,1′R)-((2S,2′S)-(((9-(nonane-5-yl)-9H-carbazole-2,7-diyl)bis(azanediyl))bis(carbonyl))bis(pyrrolidine-2,1-diyl))bis(2-oxo-1-phenylethane-2,1-diyl))dicarbamate] | ~10 pM | 
CCCCn1c2cc(NC(=O)[C@@H]3CCCN3C(=O)[C@@H](NC(=O)OC)C(C)C)ccc2c2ccc(-c3c[nH]c([C@@H]4CCCN4C(=O)[C@@H](NC(=O)OC)C(C)C)n3)cc21 [Example 53, methyl ((S)-1-((S)-2-((9-butyl-7-(2-((S)-1-((methoxycarbonyl)-L-valyl)pyrrolidine-2-yl)-1H-imidazole-4-yl)-9H-carbazole-2-yl)carbamoyl)pyrrolidine-1-yl)-3-methyl-1-oxobutane-2-yl)carbamate] | > 10000 pM | 
COCCOCCOCCn1c2cc(NC(=O)[C@@H]3CCCN3C(=O)[C@H](NC(=O)OC)c3ccccc3)ccc2c2ccc(NC(=O)[C@@H]3CCCN3C(=O)[C@H](NC(=O)OC)c3ccccc3)cc21 [Example 23, dimethyl ((1R,1′R)-((2S,2′S)-(((9-(2-(2-(2-methoxyethoxy)ethoxy)ethyl)-9H-carbazole-2,7-diyl)bis(azanediyl))bis(carbonyl))bis(pyrrolidine-2,1-diyl))bis(2-oxo-1-phenylethane-2,1-diyl))dicarbamate] | > 1000 pM | 
COCCOCCOc1cccc(Cn2c3cc(NC(=O)[C@@H]4CCCN4C(=O)[C@H](NC(=O)OC)c4ccccc4)ccc3c3ccc(NC(=O)[C@@H]4CCCN4C(=O)[C@H](NC(=O)OC)c4ccccc4)cc32)c1 [Example 40, dimethyl ((1R,1′R)-((2S,2′S)-(((9-(3-(2-(2-methoxyethoxy)ethoxy)benzyl)-9H-carbazole-2,7-diyl)bis(azanediyl))bis(carbonyl))bis(pyrrolidine-2,1-diyl))bis(2-oxo-1-phenylethane-2,1-diyl))dicarbamate] | 10 to 100 pM | 
